Assay results published in patent US4296105A, “Derivatives of doxorubicine, their preparation and use” (Institut International de Pathologie Cellulaire et …, priority 1978, dated 1981).

Columns and labels:
leukemia L1210 = experiment: Antitumoral activity in DBA2 mice grafted subcutaneously with leukemia L1210 cells; format: in vivo
Description: The tests were made with mice weighing 20 to 22 g grafted subcutaneously with 10^6 cells of leukemia L1210 and treated with daily doses between 5 and 60 mg/kg i.v.
At equitoxic dose, doxorubicine induces 78% ILS, 16% of surviving animals at long term and an average tumoral volume of 24 mm^3 on day 12.

[1] = Acute toxicity in mice (50% lethal dose, i.v. injection 2 consecutive days); format: in vivo
[2] = DBA2 mice 20-22 g, 10^6 L1210 cells s.c., i.v. days 1 and 2, 48 mg/kg a day
[3] = DBA2 mice, L1210 s.c., equitoxic dose

| SMILES | increase in life span (ILS) (leukemia L1210; [2]) [%] | surviving animals at long term (leukemia L1210; [2]) [%] | average tumoral volume on day 12 (leukemia L1210; [2]) [mm^3] | LD50 ([1]; mouse, in vivo, iv) [mg/kg] | LD50 relative to doxorubicine (times more than for doxorubicine) ([1]; versus doxorubicine) [times] | increase in life span (ILS) (leukemia L1210; [3]) [%] | surviving animals at long term (leukemia L1210; [3]) [%] | average tumoral volume on day 12 (leukemia L1210; [3]) [mm^3] |
| --- | --- | --- | --- | --- | --- | --- | --- | --- |
| COc1cccc2c1C(=O)c1c(O)c3c(c(O)c1C2=O)C[C@@](O)(C(=O)CO)C[C@@H]3O[C@H]1C[C@H](NC(=O)[C@@H](N)CC(C)C)[C@H](O)[C@H](C)O1 [N-(L-leucyl)doxorubicine] | 131 | 33 | 0.01 | ~67 | 6 | – | – | – |
| COc1cccc2c1C(=O)c1c(O)c3c(c(O)c1C2=O)C[C@@](O)(C(=O)CO)C[C@@H]3O[C@H]1C[C@H](N)[C@H](O)[C@H](C)O1 [doxorubicine] | – | – | – | – | – | 78 | 16 | 24 |
